Source: patent publication US7875645B2, “Method for the treatment of CNS disorders with substituted 2-imidazoles or imidazole derivatives” (Hoffman-La Roche Inc., priority 2006, dated 2011)
Where a name gives a salt, the structure may show the parent alone.

These compounds were tested against T1, TAAR1 (Mus musculus, UniProt Q923Y8) (assay: Radioligand binding assay on membranes of HEK293 cells stably expressing TAAR1). Details: mouse TAAR1; radioligand [3H]-rac-2-(1,2,3,4-tetrahydro-1-naphthyl)-2-imidazoline at 60 nM; 4° C., 30 min.
T1 construct: expressed in transfected cells; host or cells: HEK293 (ATCC # CRL-1573), stably transfected with pIRESneo2 expression plasmid; membranes prepared
T1 sequence (Q923Y8 whole entry): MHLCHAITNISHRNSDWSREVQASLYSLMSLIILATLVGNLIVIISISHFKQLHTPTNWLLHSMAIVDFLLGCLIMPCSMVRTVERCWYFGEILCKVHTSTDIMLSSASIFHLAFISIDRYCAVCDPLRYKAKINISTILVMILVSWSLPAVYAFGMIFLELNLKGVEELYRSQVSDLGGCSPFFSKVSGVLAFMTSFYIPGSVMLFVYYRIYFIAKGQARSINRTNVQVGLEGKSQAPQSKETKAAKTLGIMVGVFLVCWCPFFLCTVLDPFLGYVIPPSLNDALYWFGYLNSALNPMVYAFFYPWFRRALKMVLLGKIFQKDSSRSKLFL
Protocol: For the construction of expression plasmids the coding sequences of human, rat and mouse TAAR 1 were amplified from genomic DNA essentially as described by Lindemann et al.. The Expand High Fidelity PCR System (Roche Diagnostics) was used with 1.5 mM Mg^2+ and purified PCR products were cloned into pCR2.1-TOPO cloning vector (Invitrogen) following the instructions of the manufacturer. PCR products were subcloned into the pIRESneo2 vector (BD Clontech, Palo Alto, Calif.), and expression vectors were sequence verified before introduction in cell lines.
For the generation of stably transfected cell lines HEK293 cells were transfected with the pIRESneo2 expression plasmids containing the TAAR coding sequences (described above) with Lipofectamine 2000 (Invitrogen) according to the instructions of the manufacturer, and 24 hrs post transfection the culture medium was supplemented with 1 mg/ml G418 (Sigma, Buchs, Switzerland). After a culture period of about 10 d clones were isolated, expanded and tested for responsiveness to trace amines (all compounds purchased from Sigma) with the cAMP Biotrak Enzyme immunoassay (EIA) System (Amersham) following the non-acetylation EIA procedure provided by the manufacturer.
Cells at confluence were rinsed with ice-cold phosphate buffered saline without Ca^2+ and Mg^2+ containing 10 mM EDTA and pelleted by centrifugation at 1000 rpm for 5 min at 4° C. The pellet was then washed twice with ice-cold phosphate buffered saline and cell pellet was frozen immediately by immersion in liquid nitrogen and stored until use at −80° C. Cell pellet was then suspended in 20 ml HEPES-NaOH (20 mM), pH 7.4 containing 10 mM EDTA, and homogenized with a Polytron (PT 3000, Kinematica) at 10,000 rpm for 10 s. The homogenate was centrifuged at 48,000×g for 30 min at 4° C. and the pellet resuspended in 20 ml HEPES-NaOH (20 mM), pH 7.4 containing 0.1 mM EDTA (buffer A), and homogenized with a Polytron at 10,000 rpm for 10 s. The homogenate was then centrifuged at 48,000×g for 30 min at 4° C. and the pellet resuspended in 20 ml buffer A, and homogenized with a Polytron at 10,000 rpm for 10 s. Protein concentration was determined by the method of Pierce (Rockford, Ill.). The homogenate was then centrifuged at 48,000×g for 10 min at 4° C., resuspended in HEPES-NaOH (20 mM), pH 7.0 including MgCl2 (10 mM) and […] homogenized with a Polytron at 10,000 rpm for 10 s.
Binding assay was performed at 4° C. in a final volume of 1 ml, and with an incubation time of 30 min. […] Non-specific binding was defined as the amount of [^3H]-rac-2-(1,2,3,4-tetrahydro-1-naphthyl)-2-imidazoline bound in the presence of the appropriate unlabelled ligand (10 μM). Competing ligands were tested in a wide range of concentrations (10 pM-30 μM). […] Each experiment was performed in duplicate. Al incubations were terminated by rapid filtration through UniFilter-96 plates (Packard Instrument Company) and glass filter GF/C, pre-soaked for at least 2 h in polyethylenimine 0.3%, and using a Filtermate 96 Cell Harvester (Packard Instrument Company). The tubes and filters were then washed 3 times with 1 ml aliquots of cold buffer B. Filters were not dried and soaked in Ultima gold (45 μl/well, Packard Instrument Company) and bound radioactivity was counted by a TopCount Microplate Scintillation Counter (Packard Instrument Company).

Compound	Ki
Nc1c(Cl)cc(CC2=NCCN2)cc1Cl [Example 125, 2,6-Dichloro-4-(4,5-dihydro-1H-imidazol-2-ylmethyl)-phenylamine, reference compound]	0.048 µM
CCc1cccc(C)c1CC1=NCCN1 [Example 11, 2-(2-Ethyl-6-methyl-benzyl)-4,5-dihydro-1H-imidazole]	0.007 µM
CCc1ccc(Cl)c(CC)c1CC1=NCCN1 [Example 196, 2-(3-Chloro-2,6-diethyl-benzyl)-4,5-dihydro-1H-imidazole]	0.023 µM
Cc1cccc(C(C)C2=NCCN2)c1C (racemic) [Example 18, rac-2-[1-(2,3-Dimethyl-phenyl)-ethyl]-4,5-dihydro-1H-imidazole hydrochloride]	0.027 µM
c1cc2ccc(CC3=NCCN3)cc2o1 [Example 170, 2-Benzofuran-6-ylmethyl-4,5-dihydro-1H-imidazole hydrochloride]	0.026 µM
CCc1ccc(OC)c(CC)c1CC1=NCCN1 [Example 206, 2-(2,6-Diethyl-3-methoxy-benzyl)-4,5-dihydro-1H-imidazole]	0.038 µM
4-Tritio-2-naphthalen-1-ylmethyl-4,5-dihydro-1H-imidazole [Example 113]	0.007 µM
Cc1c(C)c(C)c(CC2=NCCN2)c(C)c1C [Example 115, 2-Pentamethylphenylmethyl-4,5-dihydro-1H-imidazole]	0.007 µM
COc1cc(Br)c(C)c(CC2=NCCN2)c1 [Example 58, 2-(3-Bromo-5-methoxy-2-methyl-benzyl)-4,5-dihydro-1H-imidazole]	0.03 µM
CCc1ccc(Br)c(CC)c1Cc1ncc[nH]1 [Example 77, 2-(3-Bromo-2,6-diethyl-benzyl)-1H-imidazole]	0.026 µM
Clc1ccc(CC2=NCCN2)cc1Cl [Example 121, 2-(3,4-Dichloro-benzyl)-4,5-dihydro-1H-imidazole]	0.023 µM
Cc1cc(C)c(C)c(Cc2ncc[nH]2)c1C [Example 71, 2-(2,3,5,6-Tetramethyl-benzyl)-1H-imidazole]	0.01 µM
CC(C1=NCCN1)c1ccc(Cc2ccccc2)cc1 (racemic) [Example 158, rac-2-[1-(4-Benzyl-phenyl)-ethyl]-4,5-dihydro-1H-imidazole hydrochloride]	0.021 µM
Cc1cc(C)c(Cc2ncc[nH]2)c(C)c1 [Example 137, 2-(2,4,6-Trimethyl-benzyl)-1H-imidazole]	0.038 µM
c1ccc2cc(CC3=NCCN3)ccc2c1 [Example 141, 2-Naphthalen-2-ylmethyl-4,5-dihydro-1H-imidazole]	0.029 µM
COc1ccc2ccccc2c1CC1=NCCN1 [Example 149, 2-(2-Methoxy-naphthalen-1-ylmethyl)-4,5-dihydro-1H-imidazole]	0.012 µM
CCc1cccc(OC)c1CC1=NCCN1 [Example 9, 2-(2-Ethyl-6-methoxy-benzyl)-4,5-dihydro-1H-imidazole]	0.01 µM
Cc1cc(C(C)(C)C)cc(C)c1CC1=NCCN1 [Example 114, 2-(4-tert-Butyl-2,6-dimethyl-benzyl)-4,5-dihydro-1H-imidazole, reference compound]	0.006 µM
CCc1ccc(F)c(CC)c1Cc1ncc[nH]1 [Example 202, 2-(2,6-Diethyl-3-fluoro-benzyl)-1H-imidazole]	0.034 µM
Cc1cccc(Br)c1CC1=NCCN1 [Example 57, 2-(2-Bromo-6-methyl-benzyl)-4,5-dihydro-1H-imidazole]	0.029 µM
CCc1cccc(C(C)C)c1CC1=NCCN1 [Example 12, 2-(2-Ethyl-6-isopropyl-benzyl)-4,5-dihydro-1H-imidazole]	0.03 µM
Cc1cc(C(C)(C)C)c(O)c(C)c1CC1=NCCN1 [Example 117, 6-tert-Butyl-3-(4,5-dihydro-1H-imidazol-2-ylmethyl)-2,4-dimethyl-phenol, reference compound]	0.008 µM
CCc1ccc(Br)c(CC)c1CC1=NCCN1 [Example 32, 2-(3-Bromo-2,6-diethyl-benzyl)-4,5-dihydro-1H-imidazole]	0.005 µM

Compound	Ki
COc1cccc(C)c1CC1=NCCN1 [Example 10, 2-(2-Methoxy-6-methyl-benzyl)-4,5-dihydro-1H-imidazole]	0.023 µM
Cc1ccc2ccccc2c1CC1=NCCN1 [Example 154, 2-(2-Methyl-naphthalen-1-ylmethyl)-4,5-dihydro-1H-imidazole]	0.01 µM
Cc1cc(C)c(CC2=NCCN2)c(C)c1 [Example 118, 2-(2,4,6-Trimethyl-benzyl)-4,5-dihydro-1H-imidazole, reference compound]	0.017 µM
c1ccc2c(CC3=NCCN3)cccc2c1 [Example 140, 2-Naphthalen-1-ylmethyl-4,5-dihydro-1H-imidazole, reference compound]	0.007 µM
CCc1ccc(Oc2ccccc2)c(CC)c1Cc1ncc[nH]1 [Example 220, 2-(2,6-Diethyl-3-phenoxy-benzyl)-1H-imidazole]	0.013 µM
CCc1cc(Oc2ccccc2)cc(CC)c1Cc1ncc[nH]1 [Example 219, 2-(2,6-Diethyl-4-phenoxy-benzyl)-1H-imidazole]	0.012 µM
Cc1sc(C)c(Cc2ncc[nH]2)c1C [Example 110, 2-(2,4,5-Trimethyl-thiophen-3-ylmethyl)-1H-imidazole]	0.021 µM
CCc1cccc(CC)c1Cc1ncc[nH]1 [Example 70, 2-(2,6-Diethyl-benzyl)-1H-imidazole]	0.025 µM
Clc1cccc(I)c1CC1=NCCN1 [Example 187, 2-(2-Chloro-6-iodo-benzyl)-4,5-dihydro-1H-imidazole]	0.016 µM
Brc1c(CC2=NCCN2)ccc2ccccc12 [Example 175, 2-(1-Bromo-naphthalen-2-ylmethyl)-4,5-dihydro-1H-imidazole]	0.011 µM
COc1cc(C)c(CC2=NCCN2)c(C)c1 [Example 123, 2-(4-Methoxy-2,6-dimethyl-benzyl)-4,5-dihydro-1H-imidazole]	0.028 µM
COc1cccc(Cl)c1CC1=NCCN1 [Example 55, 2-(2-Chloro-6-methoxy-benzyl)-4,5-dihydro-1H-imidazole]	0.017 µM
CCc1ccccc1CC1=NCCN1 [Example 54, 2-(2-Ethyl-benzyl)-4,5-dihydro-1H-imidazole]	0.016 µM
Cc1c(C)c(C)c(Cc2ncc[nH]2)c(C)c1C [Example 72, 2-Pentamethylphenylmethyl-1H-imidazole]	0.017 µM
c1ccc(C2CC2)c(CC2=NCCN2)c1 [Example 56, 2-(2-Cyclopropyl-benzyl)-4,5-dihydro-1H-imidazole]	0.025 µM
COc1cccc(CC2=NCCN2)c1OC [Example 122, 2-(2,3-Dimethoxy-benzyl)-4,5-dihydro-1H-imidazole]	0.025 µM
Cc1sc(C)c(CC2=NCCN2)c1C [Example 109, 2-(2,4,5-Trimethyl-thiophen-3-ylmethyl)-4,5-dihydro-1H-imidazole]	0.004 µM
COc1cc(C)c(Cc2ncc[nH]2)c(C)c1 [Example 73, 2-(4-Methoxy-2,6-dimethyl-benzyl)-1H-imidazole]	0.049 µM
FC(F)(F)c1cccc(CC2=NCCN2)c1Cl [Example 59, 2-(2-Chloro-3-trifluoromethyl-benzyl)-4,5-dihydro-1H-imidazole]	0.041 µM
COc1cc(C)c(CC2=NCCN2)cc1C [Example 33, 2-(4-Methoxy-2,5-dimethyl-benzyl)-4,5-dihydro-1H-imidazole hydrochloride]	0.014 µM
Cc1ccc2ccoc2c1CC1=NCCN1 [Example 106, 2-(6-Methyl-benzofuran-7-ylmethyl)-4,5-dihydro-1H-imidazole]	0.017 µM
c1cc(CC2=NCCN2)c2occc2c1 [Example 107, 2-Benzofuran-7-ylmethyl-4,5-dihydro-1H-imidazole]	0.022 µM
